Source: BindingDB's records for doi:10.1021/acs.jmedchem.6b01892 (University of Regensburg, 2017)

Key:
[1] = Competitive binding affinity to human muscarinic acetylcholine receptor M2 expressed in […] cell homogenates assessed as W84 pIC50 at 1 nM after 2 hrs by liquid scintillation counting assay
[2] = Competitive binding affinity to human muscarinic acetylcholine receptor M2 expressed in […] cell homogenates assessed as W84 pIC50 at 4 nM after 2 hrs by liquid scintillation counting assay
[3] = Competitive binding affinity to human muscarinic acetylcholine receptor M2 expressed in […] cell homogenates assessed as W84 pIC50 at 2 nM after 2 hrs by liquid scintillation counting assay
[4] = Competitive binding affinity to human muscarinic acetylcholine receptor M2 expressed in […] cell homogenates assessed as W84 pIC50 at 0.4 nM after 2 hrs by liquid scintillation counting assay
[5] = Competitive binding affinity to human muscarinic acetylcholine receptor M2 expressed in […] cells assessed as W84 pIC50 at 2 nM after 2 hrs by liquid scintillation counting assay
[6] = Competitive binding affinity to human muscarinic acetylcholine receptor M2 expressed in […] cells assessed as W84 pIC50 at 4 nM after 2 hrs by liquid scintillation counting assay
[7] = Competitive binding affinity to human muscarinic acetylcholine receptor M2 expressed in […] cells assessed as W84 pIC50 at 8 nM after 2 hrs by liquid scintillation counting assay
[8] = Competitive binding affinity to human muscarinic acetylcholine receptor M2 expressed in […] cells assessed as W84 pIC50 at 30 nM after 2 hrs by liquid scintillation counting assay
[9] = Competitive binding affinity to human muscarinic acetylcholine receptor M2 expressed in […] cells assessed as W84 pIC50 at 15 nM after 2 hrs by liquid scintillation counting assay

Row | IC50 [1] | IC50 [2] | IC50 [3] | IC50 [4] | IC50 [5] | IC50 [6] | IC50 [7] | IC50 [8] | IC50 [9] | Compound
1 | 6610 nM | 18600 nM | 10500 nM | 2690 nM |  |  |  |  |  | [3H]CC([3H])C(=O)NCc1cc(C(=O)NCCNC(=O)CCc2cn(CCCCC3CCN(CC(=O)N4c5ccccc5NC(=O)c5ccccc54)CC3)cn2)cc(C(=O)NCCNC(=O)CCc2cn(CCCCC3CCN(CC(=O)N4c5ccccc5NC(=O)c5ccccc54)CC3)cn2)c1 (centres undefined)
2 |  |  |  |  | 182 nM | 282 nM | 631 nM | 2090 nM | 1350 nM | [3H]CC([3H])C(=O)NCCNC(=O)CCc1cn(CCCCC2CCN(CC(=O)N3c4ccccc4NC(=O)c4ccccc43)CC2)cn1 (centres undefined)
